Data published in EPA's ToxRefDB 2.

How the values were obtained:
rat [1] = details: Developmental neurotoxicity study; sprague dawley; Injection; Subcutaneous; dose end: 345 PND; group: cannot be grouped; systemic / in life observation / body weight / offspring (pup) weight + systemic / in life observation / clinical signs / abnormal movements…
rat [2] = details: Sub-acute repeat dose toxicity, sprague dawley, Oral, Gavage/Intubation, dose end: 28 day, group: systemic
primate [3] = details: Sub-acute repeat dose toxicity; Oral; Gavage/Intubation; dose end: 30 day; group: systemic; systemic / clinical chemistry / protein / protein + systemic / hematology / erythrocyte (rbc) count differential / erythrocyte (rbc) + …
rat [4] = details: Sub-acute repeat dose toxicity, sprague dawley, Oral, Gavage/Intubation, dose end: 14 day, group: systemic
primate [5] = details: Sub-acute repeat dose toxicity; Oral; Gavage/Intubation; dose end: 19 day; group: systemic; systemic / clinical chemistry / creatinine / creatinine + systemic / clinical chemistry / urea nitrogen / urea nitrogen + systemic / …
primate [6] = details: Sub-acute repeat dose toxicity; Oral; Gavage/Intubation; dose end: 21 day; group: systemic; systemic / in life observation / clinical signs / inappetence + systemic / in life observation / clinical signs / abnormal feces + systemic…
rat [7] = details: Fertility (Segment I), sprague dawley, Oral, Gavage/Intubation, dose end: 7 GD
rat [8] = details: Fertility (Segment I), sprague dawley, Oral, Gavage/Intubation, dose end: 14 GD
rat [9] = details: Prenatal developmental toxicity study, Sprague Dawley OFA, Oral, Gavage/Intubation, dose end: 17 GD, group: maternal
rabbit = details: Prenatal developmental toxicity study, other, Oral, Gavage/Intubation, dose end: 18 GD
rat [10] = details: Sub-acute repeat dose toxicity, other, Oral, Gavage/Intubation, dose end: 29 day, group: systemic
mouse = details: Subchronic oral toxicity in rodents, cd1, Gavage/Intubation, dose end: 13 weeks, group: systemic, systemic / in life observation / body weight / body weight + systemic / in life observation / body weight / body weight gain + systemic / in…
dog [11] = details: Sub-acute repeat dose toxicity, beagle, Oral, Gavage/Intubation, dose end: 4 week, group: systemic
dog [12] = details: Chronic toxicity, beagle, Oral, Gavage/Intubation, dose end: 12 month, group: systemic
dog [13] = details: Chronic toxicity, beagle, Oral, Gavage/Intubation, dose end: 6 month, group: systemic
rat [14] = details: Sub-acute repeat dose toxicity, sprague dawley, Oral, Gavage/Intubation, dose end: 1 month, group: systemic
rat [15] = details: Prenatal developmental toxicity study, sprague dawley, Oral, Gavage/Intubation, dose end: 17 GD, group: maternal
rat [16] = details: Chronic toxicity; sprague dawley; Oral; Gavage/Intubation; dose end: 6 month; group: systemic; systemic / clinical chemistry / estradiol / estradiol + systemic / clinical chemistry / prolactin / prolactin + systemic / clinical …
rat [17] = details: Fertility (Segment I), sprague dawley, Oral, Gavage/Intubation, dose end: 7 GD; remark: listed apart in the source
rat [18] = details: Carcinogenicity; fischer; Oral; Feed; dose end: 2 year; group: systemic; systemic / in life observation / body weight / body weight
rat [19] = details: Sub-acute repeat dose toxicity, sprague dawley, Oral, Gavage/Intubation, dose end: 28 day, group: systemic; remark: listed apart in the source
rat [20] = details: Prenatal developmental toxicity study; sprague dawley; Oral; Gavage/Intubation; dose end: 7 GD; group: maternal; reproductive / reproductive performance / estrous cycle / corpora lutea + reproductive / reproductive performance / postimplantation loss / …
[21] = systemic / pathology gross / full gross necropsy / ulcer
[22] = systemic / pathology gross / full gross necropsy / ulcer + systemic / clinical chemistry / protein / protein + systemic / hematology / …
[23] = systemic / clinical chemistry / calcium / calcium + systemic / clinical chemistry / protein / protein + systemic / hematology / erythrocyte…
[24] = systemic / hematology / erythrocyte (rbc) count differential / erythrocyte (rbc) + systemic / hematology / hematocrit (hct) / hematocrit (…
[25] = group: maternal, reproductive / reproductive performance / fertility / fertility + reproductive / reproductive performance / implantations / implantations + …
[26] = group: parental, systemic / in life observation / clinical signs / drooping eyelids (ptosis) + systemic / pathology gross / vagina / dilatation
[27] = group: maternal, reproductive / reproductive performance / fertility / fertility
[28] = group: parental, systemic / in life observation / body weight / body weight gain + systemic / in life observation / clinical signs / [other] + systemic / in …
[29] = systemic / in life observation / body weight / body weight + systemic / in life observation / clinical signs / drooping eyelids (ptosis)
[30] = systemic / in life observation / clinical signs / drooping eyelids (ptosis)
[31] = group: developmental, systemic / in life observation / body weight / fetal weight
[32] = group: maternal, systemic / in life observation / body weight / body weight gain + systemic / in life observation / food consumption / food consumption + …
[33] = systemic / hematology / platelet / platelet + systemic / in life observation / body weight / body weight + systemic / in life observation / …
[34] = systemic / in life observation / clinical signs / drooping eyelids (ptosis) + systemic / in life observation / clinical signs / lacrimation …
[35] = systemic / in life observation / clinical signs / pulse/pressure + systemic / urinalysis / protein / protein
[36] = systemic / in life observation / clinical signs / pulse/pressure + systemic / urinalysis / protein / protein + systemic / in life …
[37] = systemic / clinical chemistry / bilirubin / total bilirubin + systemic / hematology / platelet / platelet + systemic / in life observation…
[38] = systemic / clinical chemistry / bilirubin / total bilirubin + systemic / in life observation / clinical signs / [other] + systemic / in life…
[39] = systemic / clinical chemistry / albumin / albumin + systemic / clinical chemistry / albumin-globulin ratio / albumin-globulin ratio + …
[40] = systemic / in life observation / clinical signs / [other] + systemic / in life observation / clinical signs / defecation (diarrhea) + …
[41] = systemic / clinical chemistry / triglycerides / triglycerides + systemic / in life observation / body weight / body weight gain + systemic…
[42] = systemic / pathology gross / vagina / dilatation + systemic / pathology gross / skin / [other]
[43] = systemic / in life observation / body weight / body weight gain + systemic / in life observation / clinical signs / drooping eyelids (ptosis…
[44] = group: maternal, reproductive / reproductive performance / estrous cycle / abnormal + reproductive / reproductive performance / estrous cycle / length
[45] = group: maternal, reproductive / reproductive performance / estrous cycle / abnormal + reproductive / reproductive performance / estrous cycle / length + …
[46] = group: parental, systemic / in life observation / body weight / body weight gain + systemic / in life observation / clinical signs / drooping eyelids (ptosis…
[47] = systemic / organ weight / heart / nos + systemic / organ weight / thymus / nos + systemic / pathology microscopic / ovary / follicle count

C[C@@H]1C[C@H]2[C@@H]3CCC4=CC(=O)C=C[C@]4(C)[C@@]3(F)[C@@H](O)C[C@]2(C)[C@@]1(O)C(=O)CO [Dexamethasone]
LEL (rat [1]): 3 mg/kg/day
LOAEL (rat [1]): > 3 mg/kg/day
NEL (rat [1]): < 3 mg/kg/day
NOAEL (rat [1]): ≥ 3 mg/kg/day

NC(=O)n1c(O)c(C(=O)c2cc(Cl)cs2)c2cc(Cl)ccc21
LEL (rat [2]; [21]): 2 mg/kg/day
NEL (rat [2]; [21]): < 2 mg/kg/day
LOAEL (rat [2]; [22]): > 8 mg/kg/day
NOAEL (rat [2]; [22]): ≥ 8 mg/kg/day
LEL (primate [3]): 2 mg/kg/day
LOAEL (primate [3]): > 6 mg/kg/day
NEL (primate [3]): < 2 mg/kg/day
NOAEL (primate [3]): ≥ 6 mg/kg/day
LOAEL (rat [4]; [23]): > 100 mg/kg/day
NOAEL (rat [4]; [23]): ≥ 100 mg/kg/day
LEL (rat [4]; [24]): 3 mg/kg/day
NEL (rat [4]; [24]): < 3 mg/kg/day
LEL (primate [5]): 8 mg/kg/day
LOAEL (primate [5]): > 8 mg/kg/day
NEL (primate [5]): < 8 mg/kg/day
NOAEL (primate [5]): ≥ 8 mg/kg/day
LEL (primate [6]): 3 mg/kg/day
LOAEL (primate [6]): > 3 mg/kg/day
NEL (primate [6]): < 3 mg/kg/day
NOAEL (primate [6]): ≥ 3 mg/kg/day

NC(=O)Cn1c(=O)cc(CCN2CCN(c3nccc4sccc34)CC2)c2ccc(F)cc21 [Trelanserin]
LEL (rat [7]; [25]): 80 mg/kg/day
LOAEL (rat [7]; [25]): > 80 mg/kg/day
NEL (rat [7]; [25]): < 80 mg/kg/day
NOAEL (rat [7]; [25]): ≥ 80 mg/kg/day
LEL (rat [7]; [26]): 80 mg/kg/day
LOAEL (rat [7]; [26]): > 80 mg/kg/day
NEL (rat [7]; [26]): < 80 mg/kg/day
NOAEL (rat [7]; [26]): ≥ 80 mg/kg/day
LEL (rat [8]; [27]): 150 mg/kg/day
LOAEL (rat [8]; [27]): > 150 mg/kg/day
NEL (rat [8]; [27]): 20 mg/kg/day
NOAEL (rat [8]; [27]): ≥ 150 mg/kg/day
LOAEL (rat [8]; [28]): > 150 mg/kg/day
NEL (rat [8]; [28]): 4 mg/kg/day
NOAEL (rat [8]; [28]): ≥ 150 mg/kg/day
LEL (rat [8]; group: parental, systemic / in life observation / clinical signs / [other] + systemic / in life observation / clinical signs / drooping eyelids (ptosis) + …): 20 mg/kg/day
LOAEL (rat [9]; [29]): > 20 mg/kg/day
NOAEL (rat [9]; [29]): ≥ 20 mg/kg/day
LEL (rat [9]; [30]): 5 mg/kg/day
NEL (rat [9]; [30]): < 5 mg/kg/day
LEL (rabbit; [31]): 10 mg/kg/day
LOAEL (rabbit; [31]): > 30 mg/kg/day
NEL (rabbit; [31]): 5 mg/kg/day
NOAEL (rabbit; [31]): ≥ 30 mg/kg/day
LEL (rabbit; group: maternal, reproductive / reproductive performance / postimplantation loss / postimplantation loss): 5 mg/kg/day
NEL (rabbit; group: maternal, reproductive / reproductive performance / postimplantation loss / postimplantation loss + systemic / in life observation / body weight / …): 2 mg/kg/day
LOAEL (rabbit; [32]): > 30 mg/kg/day
NOAEL (rabbit; [32]): ≥ 30 mg/kg/day
LOAEL (rat [10]; [33]): > 100 mg/kg/day
NOAEL (rat [10]; [33]): ≥ 100 mg/kg/day
LEL (rat [10]; [34]): 4 mg/kg/day
NEL (rat [10]; [34]): < 4 mg/kg/day
LEL (mouse): 62.5 mg/kg/day
LOAEL (mouse): 250 mg/kg/day
NEL (mouse): < 62.5 mg/kg/day
NOAEL (mouse): 125 mg/kg/day
LEL (dog [11]; [35]): 1 mg/kg/day
NEL (dog [11]; [35]): < 1 mg/kg/day
LOAEL (dog [11]; [36]): > 16 mg/kg/day
NOAEL (dog [11]; [36]): ≥ 16 mg/kg/day
LOAEL (dog [12]; [37]): > 80 mg/kg/day
NOAEL (dog [12]; [37]): ≥ 80 mg/kg/day
LEL (dog [12]; [38]): 2 mg/kg/day
NEL (dog [12]; [38]): < 2 mg/kg/day
LOAEL (dog [13]; [39]): > 100 mg/kg/day
NOAEL (dog [13]; [39]): ≥ 100 mg/kg/day
LEL (dog [13]; [40]): 4 mg/kg/day
NEL (dog [13]; [40]): < 4 mg/kg/day
LOAEL (rat [14]; [41]): 20 mg/kg/day
NOAEL (rat [14]; [41]): 2 mg/kg/day
LEL (rat [14]; [42]): 2 mg/kg/day
NEL (rat [14]; [42]): < 2 mg/kg/day
LOAEL (rat [15]; [43]): > 20 mg/kg/day
NEL (rat [15]; [43]): 1 mg/kg/day
NOAEL (rat [15]; [43]): ≥ 20 mg/kg/day
LEL (rat [15]; systemic / in life observation / clinical signs / drooping eyelids (ptosis) + systemic / in life observation / clinical signs / red or …): 5 mg/kg/day
LEL (rat [16]): 4 mg/kg/day
LOAEL (rat [16]): 20 mg/kg/day
NEL (rat [16]): < 4 mg/kg/day
NOAEL (rat [16]): 4 mg/kg/day
LEL (rat [17]; [44]): 4 mg/kg/day
NEL (rat [17]; [44]): < 4 mg/kg/day
LOAEL (rat [17]; [45]): > 20 mg/kg/day
NOAEL (rat [17]; [45]): ≥ 20 mg/kg/day
LEL (rat [17]; [46]): 10 mg/kg/day
LOAEL (rat [17]; [46]): > 20 mg/kg/day
NEL (rat [17]; [46]): 4 mg/kg/day
NOAEL (rat [17]; [46]): ≥ 20 mg/kg/day

Cc1ccc2ncccc2c1 [6-Methylquinoline]
LEL (rat [18]): 25 mg/kg/day
LOAEL (rat [18]): > 25 mg/kg/day
NEL (rat [18]): < 25 mg/kg/day
NOAEL (rat [18]): ≥ 25 mg/kg/day

CS(=O)(=O)OCCCCOS(C)(=O)=O [Busulfan]
LOAEL (rat [19]; [47]): > 1.5 mg/kg/day
NEL (rat [19]; [47]): 0.1 mg/kg/day
NOAEL (rat [19]; [47]): ≥ 1.5 mg/kg/day
LEL (rat [19]; systemic / pathology microscopic / ovary / follicle count): 0.5 mg/kg/day
LEL (rat [20]): 1.5 mg/kg/day
LOAEL (rat [20]): > 1.5 mg/kg/day
NEL (rat [20]): 0.5 mg/kg/day
NOAEL (rat [20]): ≥ 1.5 mg/kg/day
